Test results from US6642251B1, “Geometrically restricted 2-indolinone derivatives as modulators of protein kinase activity” (Sugen, Inc., priority 1998, dated 2003).

Test system: HUV-EC-C cells (human umbilical vein endothelial cells)
Assay: HUV-EC-C assay, VEGF-stimulated (VEGF HUVEC)
Type: cell-based
Experimental: The following protocol may also be used to measure a compound's activity against PDGF-R, FGF-R, VEGF, aFGF or Flk-1/KDR, all of which are naturally expressed by HUV-EC cells.
1. Wash and trypsinize HUV-EC-C cells (human umbilical vein endothelial cells, (American Type Culture Collection; catalogue no. 1730 CRL). Wash with Dulbecco's phosphate-buffered saline (D-PBS; obtained from Gibco BRL; catalogue no. 14190-029) 2 times at about 1 ml/10 cm^2 of tissue culture flask. Trypsinize with 0.05% trypsin-EDTA in non-enzymatic cell dissociation solution (Sigma Chemical Company; catalogue no. C-1544). The 0.05% trypsin is made by diluting 0.25% trypsin/l mM EDTA (Gibco; catalogue no. 25200-049) in the cell dissociation solution. Trypsinize with about 1 ml/25-30 cm^2 of tissue culture flask for about 5 minutes at 37° C. After cells have detached from the flask, add an equal volume of assay medium and transfer to a 50 ml sterile centrifuge tube (Fisher Scientific; catalogue no. 05-539-6).
2. Wash the cells with about 35 ml assay medium in the 50 ml sterile centrifuge tube by adding the assay medium, centrifuge for 10 minutes at approximately 200×g, aspirate the supernatant, and resuspend with 35 ml D-PBS. Repeat the wash two more times with D-PBS, resuspend the cells in about 1 ml assay medium/15 cm^2 of tissue culture flask. […]

| Structure (SMILES) | IC50 |
| --- | --- |
| COc1ccc2c(c1)C(CC(=O)O)C/C2=C1/C(=O)Nc2ccccc21 (centres unmarked) [Compound 11, [6-Methoxy-3-(2-oxo-1,2-dihydroindol-3-ylidene)-indan-1-yl]acetic Acid] | 50 nM |
| O=C1Nc2ccccc2/C1=C1\CCc2ccccc21 [Compound 10, 3-Indan-1-ylidene-1,3-dihydroindol-2-one] | 330 nM |
